Experimental data reported in ChEMBL document CHEMBL1124141, “(+/-)-9-Amino-1,2,3,4-tetrahydroacridin-1-ol. A potential Alzheimer's disease therapeutic of low toxicity” (J Med Chem, 1988).
pIC50: −log10 of the molar value.

Assays:
Mus musculus = species on record: Mus musculus; settings: dose 0.63 mg/kg; route subcutaneous
Description: Reversal of scopolamine-induced memory impairment in mice, after subcutaneous administration of 0.63 mg/kg

Acetylcholinesterase = molecular target: T1, Acetylcholinesterase (Rattus norvegicus, UniProt P37136); assay: In vitro inhibitory activity against acetylcholinesterase using rat striatal preparations
T1 sequence (P37136 whole entry): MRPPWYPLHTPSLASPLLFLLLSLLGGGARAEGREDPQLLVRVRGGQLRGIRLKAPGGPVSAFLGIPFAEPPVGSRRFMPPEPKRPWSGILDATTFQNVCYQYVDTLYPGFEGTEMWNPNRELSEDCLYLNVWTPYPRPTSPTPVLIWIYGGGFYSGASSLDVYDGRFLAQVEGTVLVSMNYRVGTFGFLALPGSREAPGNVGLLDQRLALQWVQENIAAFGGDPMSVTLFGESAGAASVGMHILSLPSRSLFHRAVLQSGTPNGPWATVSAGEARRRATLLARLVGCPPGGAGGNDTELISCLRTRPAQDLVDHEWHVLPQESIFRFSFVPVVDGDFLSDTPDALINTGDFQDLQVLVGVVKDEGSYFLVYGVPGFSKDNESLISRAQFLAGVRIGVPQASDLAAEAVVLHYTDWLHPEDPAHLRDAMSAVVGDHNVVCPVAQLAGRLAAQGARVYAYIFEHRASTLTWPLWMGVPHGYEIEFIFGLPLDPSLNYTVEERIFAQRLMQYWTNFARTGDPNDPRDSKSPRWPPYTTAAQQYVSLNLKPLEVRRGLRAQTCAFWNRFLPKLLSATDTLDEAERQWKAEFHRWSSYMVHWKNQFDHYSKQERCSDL

[1] = Acute toxicity in mice was determined after oral administration; format: organism-based; settings: mouse, in vivo

`Nc1c2c(nc3ccccc13)CCCC2O.O=C(O)/C=C\C(=O)O` (stereo not drawn) [VELNACRINE MALEATE] gave a Reversal (Mus musculus) of 33%, a pIC50 (Acetylcholinesterase) of 5.32 and an LD50 [1] of 136 mg/kg.
